Format in all cases: biochemical
Test [1] concerns the target Human Thrombin (Homo sapiens, UniProt P00734). As to the kind of experiment: Inhibition of the amidase activity of thrombin (Kass). Particulars: chromogenic substrate N-benzoyl-Phe-Val-Arg-p-nitroanilide; mean over range of concentrations.
Test [2] concerns the target T1, factor Xa (Homo sapiens, UniProt P00742).
T1 construct: Human factors X, Xa, IXa, XIa, and XIIa are purchased; purchased Enzyme Research Laboratories, South Bend, Ind
As to the kind of experiment: Kass, factor Xa chromogenic substrate assay. The note with it: substrate N-Benzoyl-Ile-Glu-Gly-Arg-p-nitroanilide.
Procedure: (§3) By substantially following the procedures described above for human thrombin, and using other human blood coagulation system serine proteases and proteases of the fibrinolytic system with the appropriate chromogenic substrates, identified below, selectivity of the compounds of the present invention with respect to the coagulation factor serine proteases and with respect to the fibrinolytic system serine proteases are evaluated as well as their substantial lack of interference with serine proteases of the fibrinolytic system.
Chromogenic substrates: N-Benzoyl-Ile-Glu-Gly-Arg-p-nitroanilide (for factor Xa); N-Cbz-D-Arg-Gly-Arg-p-nitroanilide (for factor IXa assay as the factor Xa substrate); Pyroglutamyl-Pro-Arg-p-nitroanilide (for Factor XIa and for aPC); H-D-Pro-Phe-Arg-p-nitroanilide (for factor XIIa); and Pyroglutamyl-Gly-Arg-p-nitroanilide (for urokinase); are purchased from KabiVirum, Stockholm, Sweden, or from Midwest Biotech, Fishers, Ind. Bovine trypsin is purchased from Worthington Biochemicals, Freehold, N.J., and human plasma kallikrein from Kabi Vitrum, Stockholm, Sweden. […] N-Benzoyl-Phe-Val-Arg-p-nitroanilide, the substrate for human thrombin and for trypsin, is synthesized according to procedures described above for the compounds of the present invention, using known methods of peptide coupling from commercially available reactants or purchased from Midwest Biotech, Fishers, Ind.

Test [3] concerns Human Plasma. As to the kind of experiment: Human plasma anticoagulation, thrombin time (TT). The note with it: concentration required to double the clotting time. On the procedure: (§1) Dog plasma and rat plasma is obtained from conscious mixed-breed hounds (either sex, Hazelton-LRE, Kalamazoo, Mich., U.S.A.) or from anesthetized male Sprague-Dawley rats (Harlan Sprague-Dawley, Inc., Indianapolis, Ind., U.S.A.) by venipuncture into 3.8 percent citrate. Fibrinogen is prepared from in-date ACD human blood as the fraction I-2 according to previous procedures and specifications. […] Human fibrinogen is also purchased as 98 percent pure/plasmin free from American Diagnostica, Greenwich, Conn. Coagulation reagents ACTIN, Thromboplastin, and Human plasma are from Baxter Healthcare Corp., Dade Division, Miami, Fla. Bovine thrombin from Parke-Davis ([…], Mich.) is used for coagulation assays in plasma.
(§2) Coagulation assay procedures are as previously described. […] A CoAScreener coagulation instrument (American LABor, Inc.) is used for all coagulation assay measurements. The prothrombin time (PT) is measured by adding 0.05 mL saline and 0.05 mL Thromboplastin-C reagent to 0.05 mL test plasma. The activated partial thromboplastin time (APTT) is measured by incubation of 0.05 mL test plasma with 0.05 mL Actin reagent for 120 seconds followed by 0.05 mL CaCl2 (0.02M). The thrombin time (TT) is measured by adding 0.05 mL saline and 0.05 mL thrombin (10 NIH units/mL) to 0.05 mL test plasma. The compounds of Formula I are added to human or animal plasma over a wide range of concentrations to determine prolongation effects on the APTT, PT, and TT assays. Linear extrapolations are performed to estimate the concentrations required to double the clotting time for each assay.

The test system of test [4] is Human Plasma. As to the kind of experiment: Human plasma anticoagulation, activated partial thromboplastin time (APTT). The note with it: concentration required to double the clotting time. On the procedure:
as §1, §2

For test [5], the system named is Human Plasma. As to the kind of experiment: Human plasma anticoagulation, prothrombin time (PT). Particulars: concentration required to double the clotting time. On the procedure:
as §1, §2

The target in test [6] is T2, Bovine trypsin (Bos taurus, UniProt P00760).
T2 construct: Bovine trypsin is purchased from Worthington Biochemicals; purchased Worthington Biochemicals, Freehold, N.J
T2 sequence (P00760 24-246): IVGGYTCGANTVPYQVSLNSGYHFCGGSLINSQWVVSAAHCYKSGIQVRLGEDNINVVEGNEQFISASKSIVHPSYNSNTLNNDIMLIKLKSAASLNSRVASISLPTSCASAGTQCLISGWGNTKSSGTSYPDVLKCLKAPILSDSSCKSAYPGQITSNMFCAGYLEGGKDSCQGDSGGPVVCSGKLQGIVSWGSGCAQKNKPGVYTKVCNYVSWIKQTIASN
As to the kind of experiment: Kass, trypsin chromogenic substrate assay. Particulars: substrate N-Benzoyl-Phe-Val-Arg-p-nitroanilide.

In test [7] the target is T3, Human plasmin (Homo sapiens, UniProt P00747).
T3 construct: Human plasmin is purchased from Boehringer Mannheim; purchased Boehringer Mannheim, Indianapolis, Ind
T3 sequence (P00747 581-810 limits assumed): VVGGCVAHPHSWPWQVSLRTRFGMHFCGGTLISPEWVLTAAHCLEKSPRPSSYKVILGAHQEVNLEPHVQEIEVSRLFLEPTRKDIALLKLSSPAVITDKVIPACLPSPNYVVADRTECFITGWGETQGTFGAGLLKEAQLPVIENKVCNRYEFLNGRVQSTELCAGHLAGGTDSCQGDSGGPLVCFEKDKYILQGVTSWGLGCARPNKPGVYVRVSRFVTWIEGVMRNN
T3 sequence (P00747 97-580 partner limits assumed): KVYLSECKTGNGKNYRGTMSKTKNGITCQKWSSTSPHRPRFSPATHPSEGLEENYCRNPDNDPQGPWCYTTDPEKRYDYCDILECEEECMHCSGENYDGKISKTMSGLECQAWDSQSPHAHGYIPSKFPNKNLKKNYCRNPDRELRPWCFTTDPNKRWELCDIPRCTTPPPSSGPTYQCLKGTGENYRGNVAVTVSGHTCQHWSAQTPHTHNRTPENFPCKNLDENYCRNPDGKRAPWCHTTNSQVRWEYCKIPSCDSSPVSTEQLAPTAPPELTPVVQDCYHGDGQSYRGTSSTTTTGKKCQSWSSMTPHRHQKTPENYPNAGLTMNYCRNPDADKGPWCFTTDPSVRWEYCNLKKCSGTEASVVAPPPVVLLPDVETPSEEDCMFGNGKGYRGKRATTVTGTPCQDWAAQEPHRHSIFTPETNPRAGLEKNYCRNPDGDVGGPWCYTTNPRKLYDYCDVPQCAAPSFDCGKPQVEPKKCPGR
As to the kind of experiment: Kass, plasmin chromogenic substrate assay. Particulars: substrate H-D-Val-Leu-Lys-p-nitroanilide.
Procedure: as §3
Human plasmin is purchased from Boehringer Mannheim, Indianapolis, Ind.; nt-PA is purchased as single chain activity reference from American Diagnostica, Greenwich, Conn.; modified-t-PA6 (mt-PA6) is prepared at Eli Lilly and Company by procedure known in the art (See, Burck, et al., J. Biol. Chem., 265, 5120-5177 (1990). Plasmin chromogenic substrate H-D-Val-Leu-Lys-p-nitroanilide and tissue plasminogen activator (t-PA) substrate H-D-Ile-Pro-Arg-p-nitroanilide are purchased from Kabi Vitrum, Stockholm, Sweden.

Counter-ions that a name gives are not always drawn. Where only a bound is given, the exact number is not on record here.

T1 sequence (P00742 235-488 limits assumed): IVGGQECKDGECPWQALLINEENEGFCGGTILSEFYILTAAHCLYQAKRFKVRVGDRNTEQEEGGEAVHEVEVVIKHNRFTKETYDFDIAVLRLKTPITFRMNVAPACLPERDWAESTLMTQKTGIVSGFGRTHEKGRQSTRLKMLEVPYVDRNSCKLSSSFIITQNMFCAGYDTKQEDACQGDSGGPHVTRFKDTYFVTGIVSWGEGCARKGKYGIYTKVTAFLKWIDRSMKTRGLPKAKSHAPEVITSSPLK
T1 sequence (P00742 41-179 partner limits assumed): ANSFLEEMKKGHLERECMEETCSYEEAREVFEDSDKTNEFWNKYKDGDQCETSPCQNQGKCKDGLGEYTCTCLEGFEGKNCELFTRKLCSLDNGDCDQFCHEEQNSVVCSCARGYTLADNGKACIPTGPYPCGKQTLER

For the molecule `CCS(=O)(=O)N[C@H](Cc1ccccc1)C(=O)N1CCC[C@H]1C(=O)NCCc1cccc(N=C(N)N)c1.Cl` [Example 37, EtSO2 -D-Phe-Pro-m-NHCH2 CH2 C6 H4 NHC(NH)NH2.HCl], the “Kass × 10^6 (L/mole) Human Thrombin” value in test [1] is 0.02 × 10^6 L/mole. Also, the “Kass × 10^6 (L/mole) Xa” value in test [2] is on record as < 0.009 × 10^6 L/mole. For the same molecule, in test [3], the “Human Plasma Anticoagulation 2x Clotting time TT” value is on record as > 9,000 ng/mL. Further, in test [4], the “Human Plasma Anticoagulation 2x Clotting time APTT” value is on record as > 9,000 ng/mL. In addition, in test [5], the “Human Plasma Anticoagulation 2x Clotting time PT” value is > 9,000 ng/mL.
On to `N=C(N)Nc1ccc(CNC(=O)[C@@H]2CCCN2C(=O)[C@@H]2NCC[C@@H]3CCCC[C@@H]32)cc1` [Example 38, D-1-Piq-Pro-p-NHCH2 C6 H4 NHC(NH)NH2.2HCl], for which the “Kass × 10^6 (L/mole) Human Thrombin” value in test [1] was 1.1 × 10^6 L/mole. For the same molecule, the “Kass × 10^6 (L/mole) Xa” value in test [2] is given as < 0.001 × 10^6 L/mole. Besides, the “Kass × 10^6 (L/mole) Trypsin” value in test [6] is 0.07 × 10^6 L/mole. Besides, the “Kass × 10^6 (L/mole) Plasmin” value in test [7] was < 0.001 × 10^6 L/mole. For the same molecule, the “Human Plasma Anticoagulation 2x Clotting time TT” value in test [3] is reported as 540 ng/mL. In addition, the “Human Plasma Anticoagulation 2x Clotting time APTT” value in test [4] is given as 6,100 ng/mL. In test [5], the “Human Plasma Anticoagulation 2x Clotting time PT” value is 11,100 ng/mL.
In the case of `N=C(N)Nc1ccc(CCNC(=O)[C@@H]2CCCN2C(=O)[C@@H]2NCC[C@@H]3CCCC[C@@H]32)cc1` [Example 39, D-1-Piq-Pro-p-NHCH2 CH2 C6 H4 NHC (NH) NH2.2HCl], the “Kass × 10^6 (L/mole) Human Thrombin” value in test [1] is given as 0.12 × 10^6 L/mole. Moreover, the “Kass × 10^6 (L/mole) Xa” value in test [2] is < 0.001 × 10^6 L/mole. Further, in test [6], the “Kass × 10^6 (L/mole) Trypsin” value is reported as < 0.02 × 10^6 L/mole. The “Kass × 10^6 (L/mole) Plasmin” value in test [7] is reported as < 0.001 × 10^6 L/mole. Moreover, the “Human Plasma Anticoagulation 2x Clotting time TT” value in test [3] is 5,300 ng/mL. Moreover, the “Human Plasma Anticoagulation 2x Clotting time APTT” value in test [4] is recorded as 69,200 ng/mL. Moreover, the “Human Plasma Anticoagulation 2x Clotting time PT” value in test [5] was 78,600 ng/mL.
For `Cl.Nc1ccc(CNC(=O)[C@@H]2CCCN2C(=O)[C@@H](CC2CCCCC2)NCC(=O)O)c(F)c1` [Example 64, HO2 CCH2 -D-Cha-Pro-4-NHCH2 -3-F-C6 H3 NH2.HCl], the “Kass × 10^6 (L/mole) Human Thrombin” value in test [1] is 15 × 10^6 L/mole. The “Kass × 10^6 (L/mole) Xa” value in test [2] was 0.01 × 10^6 L/mole. Moreover, in test [3], the “Human Plasma Anticoagulation 2x Clotting time TT” value stood at 23 ng/mL. In addition, the “Human Plasma Anticoagulation 2x Clotting time APTT” value in test [4] is reported as 900 ng/mL. Besides, in test [5], the “Human Plasma Anticoagulation 2x Clotting time PT” value was determined as 650 ng/mL.
The corresponding values for `CCC(CC)C(=O)N[C@@H](CCS(C)(=O)=O)C(=O)N1CCC[C@H]1C(=O)NCc1ccc(C(=N)N)cc1` [Example 91, (C2 H5)2 CHCO-Met(O2)-Pro-p-NHCH2 C6 H4 C(NH)NH2.HCl] are 3.6 × 10^6 L/mole, 0.007 × 10^6 L/mole, 63 ng/mL, 3,000 ng/mL and 3,500 ng/mL.
The matching figures for `Cl.N=C(N)c1ccc(CNC(=O)CN(CCc2ccccc2)C(=O)CNCC(=O)O)cc1` [Example 89, HOOCCH2 -Gly-N-C6 H5 CH2 CH2 Gly-p-NHCH2 C6 H4 C(NH)NH2.HCl]: 0.14 × 10^6 L/mole, 0.071 × 10^6 L/mole, 570 ng/mL, 51,000 ng/mL and 37,000 ng/mL.
For the molecule `N=C(N)c1ccc(CNC(=O)[C@@H]2CCCN2C(=O)[C@@H](CC2CCCCC2)NCCCC(=O)O)cc1` [Example 85, HOOCCH2 CH2 CH2 -D-Cha-Pro-p-NHCH2 C6 H4 C(NH)NH2.HCl], the “Kass × 10^6 (L/mole) Human Thrombin” value in test [1] is 265 × 10^6 L/mole. For the same molecule, in test [6], the “Kass × 10^6 (L/mole) Trypsin” value was 30.8 × 10^6 L/mole. For the same molecule, the “Human Plasma Anticoagulation 2x Clotting time TT” value in test [3] worked out at 4.9 ng/mL. Further, in test [4], the “Human Plasma Anticoagulation 2x Clotting time APTT” value is 100 ng/mL. Moreover, the “Human Plasma Anticoagulation 2x Clotting time PT” value in test [5] came out at 197 ng/mL.
The corresponding values for `CCS(=O)(=O)N[C@H](CC1CCCCC1)C(=O)N1CCC[C@H]1C(=O)NCc1ccc(CN)cc1` [Example 81, EtSO2 -D-Cha-Pro-4-NHCH2 C6 H4 CH2 NH2.HCl] are 5.3 × 10^6 L/mole, 2.1 × 10^6 L/mole, 110 ng/mL, 1,500 ng/mL and 2,700 ng/mL.
The matching figures for `N=C(N)c1ccc(CNC(=O)[C@@H]2CCCN2C(=O)[C@@H](CC2CCCCC2)NCC(=O)O)nc1` [Example 66, HO2 CCH2 -D-Cha-Pro-2-NHCH2 -5-amidinopyridine.HCl]: 120 × 10^6 L/mole, 4.6 × 10^6 L/mole, 7.9 ng/mL, 180 ng/mL and 270 ng/mL.
Consider `NCc1ccc(CNC(=O)[C@@H]2CCCN2C(=O)[C@@H](CC2CCCCC2)NCC(=O)O)cc1` [Example 78, HO2 CCH2 -D-Cha-Pro-4-NHCH2 C6 H4 CH2 NH2.HCl], for which the “Kass × 10^6 (L/mole) Human Thrombin” value in test [1] is recorded as 11 × 10^6 L/mole. Further, in test [6], the “Kass × 10^6 (L/mole) Trypsin” value is 8.6 × 10^6 L/mole. Moreover, in test [3], the “Human Plasma Anticoagulation 2x Clotting time TT” value amounted to 46 ng/mL. Further, in test [4], the “Human Plasma Anticoagulation 2x Clotting time APTT” value came to 430 ng/mL. In test [5], the “Human Plasma Anticoagulation 2x Clotting time PT” value was 760 ng/mL.
For `CS(=O)(=O)CC(=O)N[C@H](CC1CCCCC1)C(=O)N1CCC[C@H]1C(=O)NCc1ccc(C(=N)N)cc1` [Example 92, MeSO2 CH2 CO-D-Cha-Pro-P-NHCH2 C6 H4 C(NH)NH2.HCl], in test [1], the “Kass × 10^6 (L/mole) Human Thrombin” value is given as 130 × 10^6 L/mole. Besides, the “Kass × 10^6 (L/mole) Trypsin” value in test [6] is given as 7.7 × 10^6 L/mole. Besides, the “Human Plasma Anticoagulation 2x Clotting time TT” value in test [3] amounted to 8.9 ng/mL. In addition, the “Human Plasma Anticoagulation 2x Clotting time APTT” value in test [4] is 210 ng/mL. Also, in test [5], the “Human Plasma Anticoagulation 2x Clotting time PT” value is listed as 340 ng/mL.
The corresponding values for `CCS(=O)(=O)N[C@H](CC1CCCCC1)C(=O)N1CCC[C@H]1C(=O)NCc1ccnc(N)c1.Cl` [Example 83, EtSO2 -D-Cha-Pro-4-NHCH2 -2-aminopyridine.HCl] are 2.4 × 10^6 L/mole, 0.03 × 10^6 L/mole, 91 ng/mL, 1,000 ng/mL and 1,300 ng/mL.
The corresponding values for `Cl.Nc1cc(CCNC(=O)[C@@H]2CCCN2C(=O)[C@@H](CC2CCCCC2)NCC(=O)O)ccn1` [Example 76, HO2 CCH2 -D-Cha-Pro-4-NHCH2 CH2 -2-aminopyridine.HCl] are 12 × 10^6 L/mole, 0.36 × 10^6 L/mole, 29 ng/mL, 490 ng/mL and 560 ng/mL.
On to “HOOCCH2 -D-hPhe-Pro-p-NHCH2 C6 H4 C(NH)NH2.HCl [Example 87]”, for which, in test [1], the “Kass × 10^6 (L/mole) Human Thrombin” value is listed as 30 × 10^6 L/mole. For the same molecule, the “Kass × 10^6 (L/mole) Xa” value in test [2] is recorded as 2.5 × 10^6 L/mole. Also, in test [3], the “Human Plasma Anticoagulation 2x Clotting time TT” value was determined as 9 ng/mL. Besides, the “Human Plasma Anticoagulation 2x Clotting time APTT” value in test [4] is on record as 260 ng/mL. Further, the “Human Plasma Anticoagulation 2x Clotting time PT” value in test [5] stood at 310 ng/mL.
The matching figures for `N=C(N)c1ccc(CNC(=O)[C@@H]2CCCN2C(=O)[C@@H](CCC2CCCCC2)NCC(=O)O)cc1` [Example 88, HOOCCH2 -D-hCha-Pro-p-NHCH2 C6 H4 C(NH)NH2.HCl]: 410 × 10^6 L/mole, 3.9 × 10^6 L/mole, 4 ng/mL, 100 ng/mL and 200 ng/mL.
